{"source": "patent US8748428B2", "about": "“Use of a PKC inhibitor” (Novartis AG, priority 2010, dated 2014)", "key": {"[1]": {"test_system": "IL-10 mRNA in TMD8 xenograft tumor", "assay": "IL-10 mRNA expression in TMD8 xenograft tumor tissue (PD arm)", "assay_type": "in vivo, SCID-beige mice", "method": "To confirm that the growth inhibitory effect in response to PKC inhibition is mediated through modulation of NFkB pathway signaling, the mRNA expression of IL-10 was monitored in response to AEB071 treatment in a PD arm of the in vivo study. Mice were implanted with TMD8 cells as described above, and when the tumor volume reached ˜160 mm^3, a single dose of 80 mg/kg AEB071 was administered. Tumor samples were harvested and snap frozen in liquid nitrogen, at 1 hour or 8 hours following the single does of AEB071. Tissue samples were homogenized and lysed in RLT buffer (Qiagen, #74104) with Reagent DX (Qiagen, 19088) using the TissueLyser II (Qiagen, 85300). Total RNA was harvested using the RNeasy kit (Qiagen, #74104) and cDNA was made from 1 μg total RNA using the High Capacity cDNA kit (ABI, #4368814), according to manufacturer's protocols. The IL-10 Taqman probe (ABI, Hs00174086_m1) was used with Gene Expression Master Mix (ABI, 4369510) to determine the amount of mRNA expression for IL-10 relative to an endogenous control gene (ABI: TBP, 4326322E) and the DMSO control using the delta-delta Ct method. […] Consistent with the in vitro kinetics of NFkB target gene downregulation by AEB071, IL-10 mRNA expression was unaffected after just 1 hour of treatment (see, FIG. 3A)."}, "IL-6 mRNA in HBL1 cells": {"test_system": "IL-6 mRNA in HBL1 cells", "assay": "IL-6 mRNA expression (Taqman)", "assay_type": "cell-based", "conditions": "HBL1, 24 hours, 10 nM to 10 uM", "excerpt": "(§1) Constitutive activation of the NFkB pathway is a molecular hallmark of ABC DLBCL cells and is required for their proliferation and survival. See Davis, R. E., et al., J Exp Med, 194(12), 1861-1874 (2001). To confirm that the growth inhibitory effect in response to PKC inhibition is mediated through modulation of NFkB pathway signaling, the expression of NFkB pathway genes were monitored in response to AEB071 treatment. The NFkB-pathway-induced cytokine IL-6 was used as a marker to study NFkB pathway modulation by PKC inhibitors. See Lam, L. T., et al., Blood 111(7):3701-13 (2008). To measure IL-6 mRNA levels, cells were plated in […] plates in 2 ml media at 2M/ml, then treated with DMSO or inhibitors from 10 nM to 10 uM (4-fold dilutions) for 24 hours. Total RNA was harvested using the RNeasy kit (Qiagen, #74104) and cDNA was made from 1 μg total RNA using the High Capacity cDNA kit (ABI, #4368814), according to manufacturer's protocols. Taqman probes (ABI: IL-6, Hs00174131_m1) were used with Gene Expression Master Mix (ABI, 4369510) to determine the amount of mRNA expression for IL-6 relative to an endogenous control gene (ABI: TBP, 4326322E) and the DMSO control using the delta-delta Ct method."}, "[2]": {"test_system": "IL-6 mRNA in OCI-Ly10 cells", "assay": "IL-6 mRNA expression (Taqman)", "assay_type": "cell-based", "conditions": "OCI-Ly10, 24 hours, 10 nM to 10 uM", "excerpt": "as §1"}, "[3]": {"test_system": "IL-6 mRNA in OCI-Ly3 cells", "assay": "IL-6 mRNA expression (Taqman)", "assay_type": "cell-based", "conditions": "OCI-Ly3 (mutant CARD11), 24 hours, 10 nM to 10 uM", "excerpt": "as §1"}, "IL-6 mRNA in TMD8 cells": {"test_system": "IL-6 mRNA in TMD8 cells", "assay": "IL-6 mRNA expression (Taqman)", "assay_type": "cell-based", "conditions": "TMD8, 24 hours, 10 nM to 10 uM", "excerpt": "as §1"}, "[4]": {"test_system": "IL-6 secretion in HBL1 cells", "assay": "IL-6 secretion (Quantikine ELISA)", "assay_type": "cell-based", "conditions": "HBL1, ELISA of supernatant, 48 hours", "method": "(§2) The fact that IL-6 is secreted from cells allowed for monitoring of IL-6 levels in cell supernatants. IL-6 secretion was determined by Quantikine ELISA using supernatant from treated cells. Cells were washed and plated at 100,000 cells/well in 100 ul in fresh media in round-bottom 96-well plates (Corning, #3358). The cells were then treated with DMSO or inhibitors at concentrations ranging from 80 nM to 10 uM (2-fold dilutions), and incubated at 37° C. for 48 hours. Then the conditioned media was transferred to v-bottom 96-well plates (Nunc, #12565436). The level of IL-6 secretion was determined by the Quantkine colorimetric ELISA kit from (R & D Systems, #D6050), according to the manufacturer's instructions. For the IL-6 ELISA, the conditioned media was diluted 1:2 with fresh media (except ion: the HBL1 conditioned media was not diluted, it was used 1:1). In FIG. 2, IL-6 secretion for each dose is expressed as a percentage of IL-6 secretion from cells treated with DMSO."}, "[5]": {"test_system": "IL-6 secretion in TMD8 cells", "assay": "IL-6 secretion (Quantikine ELISA)", "assay_type": "cell-based", "conditions": "Homo sapiens; TMD8, ELISA of supernatant, 48 hours", "method": "as §2"}}}
{"smiles": "CN1CCN(c2nc(C3=C(c4c[nH]c5ccccc45)C(=O)NC3=O)c3ccccc3n2)CC1", "note": "[AEB071, 3-(1H-Indol-3-yl)-4-[2-(4-methylpiperazin-1-yl)quinazolin-4-yl]-1H-pyrrole-2,5-dione]", "values": [{"measurement": "IL-10 mRNA expression in xenograft tumor tissue", "setting": "[1]; 1 hour after single dose of 80 mg/kg", "value": "unaffected"}, {"measurement": "IL-10 mRNA expression in xenograft tumor tissue", "setting": "[1]; 8 hours after single dose of 80 mg/kg", "value": "decrease"}, {"measurement": "IL-6 mRNA expression", "setting": "IL-6 mRNA in HBL1 cells", "value": "dose-dependent decrease"}, {"measurement": "IL-6 mRNA expression", "setting": "[2]", "value": "dose-dependent decrease"}, {"measurement": "IL-6 mRNA expression", "setting": "[3]", "value": "unaffected"}, {"measurement": "IL-6 mRNA expression", "setting": "IL-6 mRNA in TMD8 cells", "value": "dose-dependent decrease"}, {"measurement": "IC50", "setting": "[4]", "value": "< 200", "unit": "nM"}, {"measurement": "IC50", "setting": "[5]", "value": "< 200", "unit": "nM"}]}
